The source of these data is ChEMBL document CHEMBL1138343 (J Med Chem, 2007).

In assay [1] the target is T1, Glucocorticoid receptor (Homo sapiens, UniProt P04150).
T1 sequence (P04150 whole entry): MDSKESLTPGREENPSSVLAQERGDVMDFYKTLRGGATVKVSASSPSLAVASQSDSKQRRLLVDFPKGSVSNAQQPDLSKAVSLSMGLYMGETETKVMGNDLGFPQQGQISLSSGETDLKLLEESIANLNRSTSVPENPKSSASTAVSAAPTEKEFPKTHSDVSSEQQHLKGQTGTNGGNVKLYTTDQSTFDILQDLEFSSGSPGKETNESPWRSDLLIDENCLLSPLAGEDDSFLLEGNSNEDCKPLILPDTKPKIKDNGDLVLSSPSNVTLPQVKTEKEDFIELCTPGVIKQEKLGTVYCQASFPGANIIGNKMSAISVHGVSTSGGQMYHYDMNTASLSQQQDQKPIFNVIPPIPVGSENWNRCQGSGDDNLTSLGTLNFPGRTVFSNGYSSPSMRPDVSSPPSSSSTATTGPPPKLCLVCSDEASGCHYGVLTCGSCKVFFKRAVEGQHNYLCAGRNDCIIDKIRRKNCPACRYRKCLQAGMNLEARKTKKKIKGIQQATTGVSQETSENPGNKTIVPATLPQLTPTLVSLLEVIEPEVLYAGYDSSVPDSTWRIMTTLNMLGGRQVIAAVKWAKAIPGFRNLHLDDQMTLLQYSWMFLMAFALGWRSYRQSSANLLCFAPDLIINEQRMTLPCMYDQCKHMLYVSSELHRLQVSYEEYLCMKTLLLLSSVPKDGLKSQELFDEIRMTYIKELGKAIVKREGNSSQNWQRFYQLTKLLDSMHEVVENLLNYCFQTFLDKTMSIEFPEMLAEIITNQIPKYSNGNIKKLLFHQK

Assay [2] has as its target T1, Glucocorticoid receptor. The assay is described as follows: Agonist activity at glucocorticoid receptor in human A549 cells by MMTV transactivation assay. The class given is functional, cell-based. Particulars: for pEC50: a549.
The target in assay [3] is T1, Glucocorticoid receptor. This is another data set of the same source.
Description: Agonist activity at glucocorticoid receptor in human A549 cells by NF-kappaB transrepression assay
The target of assay [4] is T1, Glucocorticoid receptor. The source holds these as a separate data set.

For the compound `Cc1noc(=O)c2ccc(NC(=O)C(O)(CC3(C4CCCC4)CCCc4ccccc43)C(F)(F)F)cc12` (stereo not given), the values for the half-maximal inhibitory concentration (IC50) on Glucocorticoid receptor [1], against Glucocorticoid receptor [3] and at Glucocorticoid receptor [4] were 53.7 nM, 2.04 nM and 8.13 nM, respectively. For the same compound, the half-maximal effective concentration (EC50) on Glucocorticoid receptor [2] is 17.8 nM.
The matching figures for `CC1(CC(O)(Cc2cc3ccccc3[nH]2)C(F)(F)F)CCCc2ccccc21` (stereo not given): 447 nM, 42.7 nM, 22.9 nM and 41.7 nM.
With `CCC1(CC(O)(Cc2cc(Cl)nc3ccccc23)C(F)(F)F)CCCc2ccccc21` (stereo not given), on Glucocorticoid receptor [2], a half-maximal response (EC50) required 51.3 nM. Also, the concentration for half-maximal inhibition (IC50) against Glucocorticoid receptor [3] was 30.2 nM; at Glucocorticoid receptor [4] it was 28.2 nM.
On the same counts, the results for `OC(Cc1ccnc2ccccc12)(CC1(C2CCCC2)CCCc2ccccc21)C(F)(F)F` (stereo not given) are over 10000 nM, 741 nM and 148 nM.
Regarding `CCC1(CC(O)(Cc2[nH]c3ccccc3c2C#N)C(F)(F)F)CCCc2ccccc21` (stereo not given), the figures for the half-inhibitory concentration (IC50) on Glucocorticoid receptor [1], against Glucocorticoid receptor [3] and against Glucocorticoid receptor [4] were 57.5 nM, 6.61 nM and 7.59 nM, respectively. The same compound gave an EC50 at Glucocorticoid receptor [2] of over 1000 nM.
On Glucocorticoid receptor [2], `CC1(CC(O)(CNc2cccc3ncccc23)C(F)(F)F)CCCc2ccccc21` (stereo not given) had an EC50 of 13.5 nM. Besides, the IC50 is 3.09 nM against Glucocorticoid receptor [3] and 6.31 nM against Glucocorticoid receptor [4].
On the same counts, the results for `CCC1(CC(O)(Cn2ccc(=O)c3ccccc32)C(F)(F)F)CCCc2ccccc21` (stereo not given) are over 1000 nM, 8.13 nM and 14.1 nM.
The matching figures for `CCC1(CC(O)(CNc2cccc3ncccc23)C(F)(F)F)CCCc2ccccc21` (stereo not given): over 1000 nM, 12.3 nM and 11.2 nM.
Turning to `CC1(CC(O)(Cn2ccc(=O)c3ccccc32)C(F)(F)F)CCCc2ccccc21` (stereo in doubt; 17D1), the figures for the IC50 against Glucocorticoid receptor [1], against Glucocorticoid receptor [3] and at Glucocorticoid receptor [4] were 224 nM, 49 nM and 14.1 nM, respectively. Also, the pEC50 at Glucocorticoid receptor [2] is given as under 6.
With `CC1(CC(O)(Cn2ccc(=O)c3ccccc32)C(F)(F)F)CCCc2ccccc21` (stereo in doubt; 17D2), the IC50 at Glucocorticoid receptor [1] was 708 nM; against Glucocorticoid receptor [3] it was over 1000 nM; at Glucocorticoid receptor [4] it was 34.7 nM. Moreover, at Glucocorticoid receptor [2], the EC50 is over 1000 nM.
For the compound `CCC1(CC(O)(Cc2cc3ccccc3[nH]2)C(F)(F)F)CCCc2ccccc21` (stereo in doubt; 20D1), the EC50 on Glucocorticoid receptor [2] is 64.6 nM. The half-inhibitory concentration (IC50) is 57.5 nM at Glucocorticoid receptor [3] and 31.6 nM against Glucocorticoid receptor [4].
In the case of `CCC1(CC(O)(Cc2cc3ccccc3[nH]2)C(F)(F)F)CCCc2ccccc21` (stereo in doubt; 20D1E1), the IC50 against Glucocorticoid receptor [1] is 245 nM; against Glucocorticoid receptor [3], 11.2 nM; at Glucocorticoid receptor [4], 14.1 nM. The same compound showed an EC50 on Glucocorticoid receptor [2] of 61.7 nM.
Take `CCC1(CC(O)(Cc2cc3ccccc3[nH]2)C(F)(F)F)CCCc2ccccc21` (stereo in doubt; 20D1E2): the IC50 against Glucocorticoid receptor [3] is over 1000 nM; at Glucocorticoid receptor [4], 1260 nM.
The compound `CCC1(CC(O)(Cc2cc3c(C)cc(C#N)cc3[nH]2)C(F)(F)F)CCCc2ccccc21` (stereo in doubt; 21D1) showed an EC50 on Glucocorticoid receptor [2] of 58.9 nM. Besides, the IC50 against Glucocorticoid receptor [3] was 7.24 nM; against Glucocorticoid receptor [4] it was 89.1 nM.
The matching figures for `CCC1(CC(O)(Cc2cc3c(C)cc(C#N)cc3[nH]2)C(F)(F)F)CCCc2ccccc21` (stereo in doubt; 21D1E2): 51.3 nM, 3.8 nM and 38.9 nM.
On Glucocorticoid receptor [2], `CCC1(CC(O)(Cc2cc3ccncc3[nH]2)C(F)(F)F)CCCc2ccccc21` (stereo in doubt; 23D1) returned a negative logarithm of the EC50 (pEC50) of under 6. In addition, the IC50 on Glucocorticoid receptor [3] is 20 nM; on Glucocorticoid receptor [4] it was 28.2 nM.
In the case of `CCC1(CC(O)(Cc2cc3ccncc3[nH]2)C(F)(F)F)CCCc2ccccc21` (stereo in doubt; 23D1E1), the IC50 was 741 nM against Glucocorticoid receptor [1], 8.91 nM against Glucocorticoid receptor [3] and 8.91 nM on Glucocorticoid receptor [4]. The EC50 at Glucocorticoid receptor [2] is over 1000 nM.
`CCC1(CC(O)(Cc2ccnc3ccccc23)C(F)(F)F)CCCc2ccccc21` (stereo in doubt; 33D1): the IC50 is 5010 nM on Glucocorticoid receptor [1], 4.9 nM against Glucocorticoid receptor [3] and 15.1 nM at Glucocorticoid receptor [4]. The same compound had an EC50 at Glucocorticoid receptor [2] of 38 nM.
As to `CCC1(CC(O)(Cc2ccnc3ccccc23)C(F)(F)F)CCCc2ccccc21` (stereo in doubt; 33D1E1), at Glucocorticoid receptor [2], the EC50 was over 1000 nM. The IC50 on Glucocorticoid receptor [3] was 1.58 nM; against Glucocorticoid receptor [4], 10 nM.
On the same counts, the results for `CCC1(CC(O)(Cc2ccnc3ccccc23)C(F)(F)F)CCCc2ccccc21` (stereo in doubt; 33D2) are over 10000 nM, 275 nM and 33.1 nM.
The compound `CC1(CC(O)(Cc2ccnc3ccccc23)C(F)(F)F)CCCc2ccccc21` (stereo in doubt; 41D1) gave a concentration for a half-maximal effect (EC50) on Glucocorticoid receptor [2] of 12.9 nM. For the same compound, the IC50 was 7.08 nM against Glucocorticoid receptor [3] and 15.1 nM against Glucocorticoid receptor [4].
On the same counts, the results for `CC1(CC(O)(Cc2ccnc3ccccc23)C(F)(F)F)CCCc2ccccc21` (stereo in doubt; 41D2) are over 10000 nM, over 10000 nM and 24 nM.
The matching figures for `CCC1(CC(O)(CNc2cccc3nc(C)ccc23)C(F)(F)F)CCCc2ccccc21` (stereo in doubt; 45D1): 13.2 nM, 2.4 nM and 14.8 nM.
As for `CCC1(CC(O)(CNc2cccc3nc(C)ccc23)C(F)(F)F)CCCc2ccccc21` (stereo in doubt; 45D1E1), at Glucocorticoid receptor [2], the response was half-maximal at 11 nM (EC50). Besides, the half-maximal inhibitory concentration (IC50) against Glucocorticoid receptor [3] was 1.95 nM; against Glucocorticoid receptor [4], 14.8 nM.
At Glucocorticoid receptor [2], `CCC1(CC(O)(CNc2cccc3nc(C)ccc23)C(F)(F)F)CCCc2ccccc21` (stereo in doubt; 45D2) had a concentration for a half-maximal effect (EC50) of 162 nM. Further, the IC50 against Glucocorticoid receptor [3] is 49 nM; against Glucocorticoid receptor [4] it was 18.6 nM.
The matching figures for `CCC1(CC(O)(CNc2cccc3nc(C)ccc23)C(F)(F)F)CCCc2ccccc21` (stereo in doubt; 45D2E1): 288 nM, 45.7 nM and 17.4 nM.
The matching figures for `CCC1(CC(O)(CNc2cccc3cnccc23)C(F)(F)F)CCCc2ccccc21` (stereo in doubt; 49D1): 32.4 nM, 1.26 nM and 21.4 nM.
On the same counts, the results for `CCC1(CC(O)(CNc2cccc3cnccc23)C(F)(F)F)CCCc2ccccc21` (stereo in doubt; 49D1E2) are over 1000 nM, 2.19 nM and 10 nM.
Turning to `CC1(CC(O)(CNc2cccc3cnccc23)C(F)(F)F)CCCc2ccccc21` (stereo in doubt; 54D1E2), the figures for the concentration for half-maximal inhibition (IC50) at Glucocorticoid receptor [1], at Glucocorticoid receptor [3] and against Glucocorticoid receptor [4] were 102 nM, 1.17 nM and 8.71 nM, respectively. Also, the half-maximal effective concentration (EC50) on Glucocorticoid receptor [2] is 8.32 nM.
In turn, `CC1(CC(O)(CNc2cccc3cnccc23)C(F)(F)F)CCCc2ccccc21` (stereo in doubt; 54D2E1) showed a concentration giving a half-maximal response (EC50) at Glucocorticoid receptor [2] of 257 nM. The half-inhibitory concentration (IC50) was 15.1 nM at Glucocorticoid receptor [3] and 74.1 nM at Glucocorticoid receptor [4].
Turning to `Cc1ccc2c(NCC(O)(CC3(C)CCCc4ccccc43)C(F)(F)F)cccc2n1` (stereo in doubt; 55D1E1), the figures for the IC50 on Glucocorticoid receptor [1], against Glucocorticoid receptor [3] and at Glucocorticoid receptor [4] were 77.6 nM, 0.501 nM and 5.01 nM, respectively. At Glucocorticoid receptor [2], a half-maximal effect (EC50) was put at 9.55 nM.
Consider `Cc1ccc2c(NCC(O)(CC3(C)CCCc4ccccc43)C(F)(F)F)cccc2n1` (stereo in doubt; 55D2E1), for which the EC50 on Glucocorticoid receptor [2] is 72.4 nM. Besides, the IC50 against Glucocorticoid receptor [3] and against Glucocorticoid receptor [4] was 9.12 nM each time.

What is called IC50 is the concentration that gives 50% inhibition. Lower therefore signals greater potency in that assay. By EC50 is commonly meant the midpoint of the concentration-response curve. A low value points to greater potency. In general, pEC50 refers to −log10 of the EC50, conventionally taken in molar units. Read a low pEC50 as a high EC50.
